Measurements taken from publication PMC10901950, “Neuroprotective and Anti-inflammatory Effects of Rubiscolin-6 Analogs with Proline Surrogates in Position 2” (Neurochemical Research, 2023).
Numbered stars: 1 amine (or outer) side, 2 acyl side, 3 side chain; on linkers, the order of the positions; unused ones are H or OH. Square brackets hold non-standard residues; d marks the D form. Ends that are not written are not given here. Peptide text beside a SMILES is read from it. Nip(3R) = O=C([C@@H]1CCCN([*:1])C1)[*:2]; Dmt = Cc1cc(O)cc(C)c1C[C@H](N)C(=O)O; Inp = O=C(O)C1CCNCC1

Tests used:
[1] = target: T1, κ-opioid receptor (Homo sapiens, UniProt P41145); assay: Opioid receptor binding assay, [3H]U-69593 competition; settings: CHO cell membranes, 0.5 nM [3H]U-69593, 25 °C, 120 min; mean ± SEM of four experiments in duplicate; read-out: Ki KOR
T1 construct: purchased; host or cells: CHO cells (membranes)
Procedure: (§1) The opioid receptor binding assays were performed using the modified method described elsewhere. Briefly, commercial membranes of Chinese Hamster Ovary (CHO) cells transfected with human opioid receptors were used. The binding affinities for µ-, δ- and κ-opioid receptors were determined by radioligand competition analysis using [^3H]DAMGO, [^3H]deltorphin-2, and [^3H]U-69593, respectively. Membranes were incubated at 25 °C for 120 min with appropriate concentrations of a tested peptide in the presence of 0.5 nM radioligand in a total volume of 0.5 mL of 50 mM Tris/HCl (pH 7.4) containing bovine serum albumin (BSA) (1 mg/mL), bacitracin (50 µg/mL), bestatin (30 µM), and captopril (10 µM). Non-specific binding was determined in the presence of 1 µM naloxone. Incubations were terminated by the rapid filtration through the GF/B Whatman (Brentford, UK) glass fibre strips (pre-soaked for 2 h in 0.5% (v/v) […]) using Millipore Sampling Manifold (Billerica, MA, USA). The filters were washed thrice with 4 mL of ice-cold Tris buffer solution. Packard Tri-Carb 2100 TR liquid scintillation counter (Ramsey, MN, USA) was used to measure the bound radioactivity after overnight extraction of the filters in 4 mL of a Perkin Elmer Ultima Gold scintillation fluid (Wellesley, MA, USA). The data were analyzed by a nonlinear least square regression analysis computer program Graph Pad PRISM 6.0 (Graph Pad Software Inc., San Diego, CA, USA). The values of the inhibitory constants (Ki) were calculated according to the equation of Cheng and Prusoff.
(§2) The ability of R-6 and its new analogs to bind to µ-, δ- and κ-opioid receptors was determined by competitive binding assays against [^3H]DAMGO, [^3H][Ile^5,6]deltorphin-2 and [^3H]U-69593, respectively, using membranes of CHO cells transfected with opioid receptors and are summarized in Table 2.

[2] = system: LPS-stimulated RAW 264.7 cells; assay: Intracellular ROS formation in LPS-stimulated RAW 264.7 cells; assay type: cell-based, mouse; settings: LPS-stimulated, 24 h; for decrease of ROS levels: peptides 0.1-10 µM
Procedure: The cytotoxic and anti-inflammatory effects of peptides on RAW 264.7 cells were estimated using MTT assay. Cells were incubated with peptides (0.1–10 µM) for 24 h to assess their cytoprotective activity. In the anti-inflammatory model, RAW 264.7 cells were exposed to LPS (Millipore Sigma, Darmstadt, Germany) at 1 µg/mL in the absence/presence of peptide at non-toxic concentrations (0.1–10 µM). Then, the MTT reagent was added to wells, and cells were incubated for 1.5 h at 37 °C. After this time, MTT was removed, 100 µL DMSO was added, and the resulting absorbance was read in a microplate reader (Synergy 2 BioTek Microplate Reader, Winooski, VT, USA) at 570 nm.
The detection of ROS generated in injured cells was evaluated using the 5(6)-carboxy-2ʹ,7ʹ-dichlorofluorescein diacetate (carboxy-H2DCFDA) reagent (Invitrogen, Bleiswijk, Netherlands). After incubation, cells were washed with ice-cold Phosphate-Buffer Saline (PBS). Then, the carboxyl-H2DCFDA (100 µL, 20 µM) reagent was added and incubated for 1 h at 37 °C. Finally, the fluorescence intensity was measured at wavelengths of […], and ROS levels were presented in percentage of control (non-treated cells).

[3] = target: T2, µ-opioid receptor (Homo sapiens, UniProt P35372); assay: Opioid receptor binding assay, [3H]DAMGO competition; parameters: purchased; host or cells: CHO cells (membranes); settings: CHO cell membranes, 0.5 nM [3H]DAMGO, 25 °C, 120 min; mean ± SEM of four experiments in duplicate; read-out: Ki MOR
Procedure: as §1, §2

[4] = target: T3, δ-opioid receptor (Homo sapiens, UniProt P41143); assay: Opioid receptor binding assay, [3H][Ile5,6]deltorphin-2 competition; parameters: purchased; host or cells: CHO cells (membranes); settings: CHO cell membranes, 0.5 nM [3H][Ile5,6]deltorphin-2, 25 °C, 120 min; mean ± SEM of four experiments in duplicate; read-out: Ki DOR
Procedure: as §1, §2

[5] = target: T2, µ-opioid receptor; assay: Calcium mobilisation assay, CHO cells with Gαqi5; assay type: cell-based; parameters: expressed in transfected cells; gift from Prof; Girolamo Calo, University of Padova; settings: for µ-opioid receptors α ± SEM: intrinsic activity, Emax ratio to Dermorphin; for µ-opioid receptors α ± SEM / µ-opioid receptors pEC50 (CL95%): Inactive = inactive as an agonist up to 1 µM; for EC50: read-out: µ-opioid receptors pEC50 (CL95%) (converted); for µ-opioid receptors pEC50 (CL95%): agonist potency, mean ± SEM of three experiments in triplicate
Procedure: (§3) Chinese Hamster Ovary (CHO) cells stably co-expressing human recombinant µ- or κ-opioid receptors and the C-terminally modified Gαqi5, and CHO cells co-expressing the human recombinant δ-opioid receptors and the GαqG66Di5 chimeric protein (a generous gift from Prof. Girolamo Calo, University of Padova, Italy) were used in calcium mobilization assay, that was performed as reported in detail elsewhere. Cells were cultured in Dulbecco’s Modified Eagle’s Medium (DMEM)/Ham’s F12 (1:1) culture medium supplemented with 10% (v/v) Fetal Bovine Serum (FBS), penicillin (100 IU/mL), streptomycin (100 µg/mL), L-glutamine (2 mM), fungizone (1 µg/mL), geneticin (G418; 200 µg/mL) and hygromycin B (100 µg/mL). Cell cultures were kept at 37 °C in 5% CO2/humidified air. When confluence was reached (3–4 days), cells were seeded at a density of 50,000 cells/well into 96-well black, clear-bottom plates. After 24 h incubation, the cells were loaded with a medium supplemented with probenecid (2.5 mM), calcium-sensitive fluorescent dye Fluo-4 AM (3 µM), pluronic acid (0.01%), and HEPES (20 mM) and kept for 30 min at 37 °C. Then, the loading solution was aspirated, and 100 µL/well of assay buffer (HBSS supplemented with 20 mM HEPES, 2.5 mM probenecid, and 500 µM Brilliant Black) was added.
(§4) The tested peptides were diluted in the HBSS/HEPES (20 mM) buffer (containing 0.005% BSA) and placed into 96-well plates. The range of concentrations tested was 10 µM–1 × 10^–6 µM. After placing both plates (cell culture and compound plate) into the FlexStation II (Molecular Device, Union City, CA, USA), the online additions were carried out in a volume of 50 µL/well and the fluorescence changes were measured.
(§5) Concentration–response curves were fitted with the four-parameter logistic, nonlinear regression model: Effect=baseline+Emax- baseline/1+10^logEC50- Xn where X is the agonist concentration and n is the Hill coefficient. Ligand efficacies, expressed as the intrinsic activity (α), were calculated as the Emax ratio of the tested compound and the standard agonist.

[6] = target: T3, δ-opioid receptor; assay: Calcium mobilisation assay, CHO cells with GαqG66Di5; assay type: cell-based; parameters: expressed in transfected cells; host or cells: CHO cells; gift from Prof; Girolamo Calo, University of Padova; settings: for δ-opioid receptors pEC50 (CL95%): agonist potency, mean ± SEM of three experiments in triplicate; for δ-opioid receptors pEC50 (CL95%) / δ-opioid receptors α ± SEM: Inactive = inactive as an agonist up to 1 µM; for δ-opioid receptors α ± SEM: intrinsic activity, Emax ratio to DPDPE; for EC50: read-out: δ-opioid receptors pEC50 (CL95%) (converted)
Procedure: as §3, §4, §5

Molecule | Ki [1] | decrease of ROS levels ([2]; DCFH-DA) | Ki [3] | Ki [4] | µ-opioid receptors α ± SEM [5] | EC50 [5] | δ-opioid receptors pEC50 (CL95%) [6] | δ-opioid receptors α ± SEM [6] | µ-opioid receptors pEC50 (CL95%) [5] | effect on ROS levels ([2]; peptide 0.1 µM) | EC50 [6] | reduction of ROS levels ([2]; peptide 0.1 µM, DCFH-DA)
Cc1cc(O)cc(C)c1C[C@H](N)C(=O)N1CCC[C@H]1C(=O)N[C@@H](CC(C)C)C(=O)N[C@@H](CC(=O)O)C(=O)N[C@@H](CC(C)C)C(=O)N[C@@H](Cc1ccccc1)C(=O)O [analog 1, Dmt-Pro-Leu-Asp-Leu-Phe-OH] (H-[Dmt]PLDLF-OH) | > 1 µM | ≤ 40% | 0.599 ± 0.0845 µM | 0.0917 ± 0.0297 µM | 0.22 ± 0.05 | 2 µM | Inactive | Inactive |  |  |  | 
CC(C)C[C@H](NC(=O)[C@@H]1CCCN(C(=O)[C@@H](N)Cc2ccc(O)cc2)C1)C(=O)N[C@@H](CC(=O)O)C(=O)N[C@@H](CC(C)C)C(=O)N[C@@H](Cc1ccccc1)C(=O)O [analog 2, Tyr-(R)-Nip-Leu-Asp-Leu-Phe-OH] (H-Y[Nip(3R)]LDLF-OH) | > 1 µM | ≤ 40% | > 1 µM | > 1 µM | Inactive |  | Inactive | Inactive | Inactive |  |  | 
CC(C)C[C@H](NC(=O)C1CCN(C(=O)[C@@H](N)Cc2ccc(O)cc2)CC1)C(=O)N[C@@H](CC(=O)O)C(=O)N[C@@H](CC(C)C)C(=O)N[C@@H](Cc1ccccc1)C(=O)O [analog 3, Tyr-Inp-Leu-Asp-Leu-Phe-OH] (H-Y[Inp]LDLF-OH) | > 1 µM |  | > 1 µM | 0.734 ± 0.0313 µM | Inactive |  | Inactive | Inactive | Inactive | protective effect |  | 
Cc1cc(O)cc(C)c1C[C@H](N)C(=O)N1CCC[C@@H](C(=O)N[C@@H](CC(C)C)C(=O)N[C@@H](CC(=O)O)C(=O)N[C@@H](CC(C)C)C(=O)N[C@@H](Cc2ccccc2)C(=O)O)C1 [analog 4, Dmt-(R)-Nip-Leu-Asp-Leu-Phe-OH] (H-[Dmt][Nip(3R)]LDLF-OH) | > 1 µM | ≤ 40% | > 1 µM | > 1 µM | Inactive |  | Inactive | Inactive | Inactive |  |  | 
Cc1cc(O)cc(C)c1C[C@H](N)C(=O)N1CCC(C(=O)N[C@@H](CC(C)C)C(=O)N[C@@H](CC(=O)O)C(=O)N[C@@H](CC(C)C)C(=O)N[C@@H](Cc2ccccc2)C(=O)O)CC1 [analog 5, Dmt-Inp-Leu-Asp-Leu-Phe-OH] (H-[Dmt][Inp]LDLF-OH) | > 1 µM |  | 0.712 ± 0.101 µM | 0.0131 ± 0.00308 µM | 0.11 ± 0.04 | 7.59 µM |  | 0.39 ± 0.02 |  | protective effect | 22.4 µM | 
CC(C)C[C@H](NC(=O)C1CCN(C(=O)[C@@H](N)Cc2ccc(O)cc2)CC1)C(=O)N[C@@H](CC(=O)O)C(=O)N[C@@H](CC(C)C)C(=O)N[C@@H](Cc1ccccc1)C(N)=O [analog 7, Tyr-Inp-Leu-Asp-Leu-Phe-NH2] (H-Y[Inp]LDLF-NH2) | > 1 µM |  | > 1 µM | 0.773 ± 0.137 µM | Inactive |  | Inactive | Inactive | Inactive |  |  | about 50%
YPLDLF [R-6, rubiscolin-6] | > 1 µM | ≤ 40% | > 1 µM | 0.0115 ± 0.00225 µM | Inactive |  |  |  | Inactive |  | 5.62 µM | 
YPLDLF-NH2 [analog 6, Tyr-Pro-Leu-Asp-Leu-Phe-NH2] | > 1 µM |  | > 1 µM | > 1 µM | Inactive |  | Inactive | Inactive | Inactive |  |  | 
